Common to all, as to format: biochemical
The target of assay [1] is T1, SaDHAD (dihydroxy-acid dehydratase) (Staphylococcus aureus, UniProt Q2FWK7).
T1 construct: gene ilvD; hexa-histidine tag at the N-terminal, pET-28a
In words: DNPH colorimetric endpoint assay with DHIV, no pre-incubation.

Assay [2] addresses T2, CjDHAD (dihydroxy-acid dehydratase) (Campylobacter jejuni, UniProt Q9PJ98).
T2 construct: gene ilvD; hexa-histidine tag at the N-terminal, pET-28a
The assay is described as above.

For assay [3], the target named is T2, CjDHAD (dihydroxy-acid dehydratase). The assay is described as follows: DNPH colorimetric endpoint assay with DHIV, 30-min pre-incubation.
Assay [4] deals with T1, SaDHAD (dihydroxy-acid dehydratase). The assay is described as above.

The term Ki denotes a dissociation constant, usually derived from enzyme kinetics or from competition with a known ligand. High values mean lower affinity, low ones higher affinity.

SMILES strings stand for the structures.

T1 sequence (Q2FWK7 whole entry): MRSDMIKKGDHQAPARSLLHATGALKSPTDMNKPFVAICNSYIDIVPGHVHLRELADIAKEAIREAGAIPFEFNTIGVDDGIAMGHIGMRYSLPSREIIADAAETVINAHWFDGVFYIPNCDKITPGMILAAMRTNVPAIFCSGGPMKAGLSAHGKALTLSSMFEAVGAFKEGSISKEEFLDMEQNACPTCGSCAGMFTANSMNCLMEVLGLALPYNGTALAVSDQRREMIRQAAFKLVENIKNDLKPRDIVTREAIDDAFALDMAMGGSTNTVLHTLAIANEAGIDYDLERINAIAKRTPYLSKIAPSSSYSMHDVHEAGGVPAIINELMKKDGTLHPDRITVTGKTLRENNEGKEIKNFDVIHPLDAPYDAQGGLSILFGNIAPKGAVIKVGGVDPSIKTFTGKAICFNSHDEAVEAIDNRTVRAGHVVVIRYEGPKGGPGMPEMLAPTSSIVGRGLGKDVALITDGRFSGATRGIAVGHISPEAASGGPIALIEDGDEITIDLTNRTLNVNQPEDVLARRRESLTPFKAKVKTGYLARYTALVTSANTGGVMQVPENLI
T2 sequence (Q9PJ98 whole entry): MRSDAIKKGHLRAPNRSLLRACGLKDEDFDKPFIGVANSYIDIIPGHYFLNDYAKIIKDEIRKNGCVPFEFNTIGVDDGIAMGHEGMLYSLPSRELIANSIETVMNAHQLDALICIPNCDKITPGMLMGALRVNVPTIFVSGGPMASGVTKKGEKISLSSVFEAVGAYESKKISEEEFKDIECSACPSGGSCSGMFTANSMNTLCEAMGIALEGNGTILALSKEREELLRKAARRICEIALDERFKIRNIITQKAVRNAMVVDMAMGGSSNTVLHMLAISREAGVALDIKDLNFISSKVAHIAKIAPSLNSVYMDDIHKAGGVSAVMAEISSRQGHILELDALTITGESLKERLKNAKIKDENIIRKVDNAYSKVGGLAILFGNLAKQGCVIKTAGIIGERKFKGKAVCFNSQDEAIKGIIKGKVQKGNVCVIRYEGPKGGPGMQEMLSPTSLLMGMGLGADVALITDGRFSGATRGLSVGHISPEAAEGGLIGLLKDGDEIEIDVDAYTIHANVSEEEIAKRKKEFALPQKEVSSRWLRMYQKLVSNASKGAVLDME

Turning to `CC(C)=C1CC[C@]23CO[C@H](C2)[C@@](O)(C(=O)O)CC[C@@H]13` [aspterric acid], the Ki in assay [1] was 51.6 µM; in assay [2] it was 35.1 µM.
As for `CC(C)N(O)C(=O)C(=O)O` [IpOHA], the values for the Ki in assay [3] and in assay [4] were 32.9 µM and 7.8 µM, respectively.
